{"source": "patent US6270797A", "about": "(USV Limited, priority 2000, dated 2001)", "origin": "cited, not measured here", "key": {"[1]": {"tested_on": "beta cells of pancreatic-islet tissue"}}}
{"compound": "Cc1cnc(C(=O)NCCc2ccc(S(=O)(=O)NC(=O)NC3CCCCC3)cc2)cn1", "note": "[Glipizide, 1-cyclohexyl-3-[[p-[2-(5-methylpyrazinecarboxamido)ethyl]phenyl]sulfonyl]urea]", "values": [{"measurement": "insulin secretion from the beta cells of pancreatic-islet tissue", "setting": "[1]", "result": "stimulates insulin secretion"}, {"measurement": "number of insulin receptors", "setting": "insulin receptors", "result": "may increase the number of insulin receptors"}]}
